Source: ChEMBL document CHEMBL1201862, “PubChem BioAssay data set” (2004)
Activity calls are given as the source filed them.

Experiments:
[1] = viability loss of HMLE_sh_eGFP cells – cell-based, luminescence, counter-screen for HMLE_sh_ECad selective toxicity project, dose response (AID 463074); assay type: functional, Homo sapiens;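 also: HMLE human mammary epithelial cells expressing control shRNA against eGFP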
[2] = Luminescence Cell-Based Dose Retest to Confirm Inhibitors of Cancer Stem Cells. [Related pubchem assays (depositor defined):AID2717, AID2721]; assay type: functional; settings: Homo sapiens
[3] = target: DNA dC->dU-editing enzyme APOBEC-3G (Homo sapiens, UniProt Q9HC16); assay type: functional;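 also: Dose-response counterscreen measuring inhibition of APOBEC3G DNA deaminase activity, run while confirming APOBEC3A inhibitors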
A-375 = test: proliferation inhibition in MITF-low A375 cells – cell-based, cherry-pick samples, set 2, counter-screen for MITF modulator project, dose response (AID 540335); assay type: functional; settings: Homo sapiens
[4] = target: DNA dC->dU-editing enzyme APOBEC-3A (Homo sapiens, UniProt P31941); test: Dose Response confirmation of small molecule APOBEC3A DNA Deaminase Inhibitors via a fluorescence-based single-stranded DNA deaminase assay. [Related pubchem assays (depositor defined):AID493011, AID493024]; assay type: functional
[5] = target: T1, Microphthalmia-associated transcription factor (Homo sapiens, UniProt O75030); test: reducers of TRPM1 reporter luminescence, concentration series – cell-based, SK-MEL-5, cherry-picked, set 3, MITF inhibitor project, dose response (AID 493073); assay type: functional;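 also: SK-MEL-5 melanoma cells with luciferase driven by the MITF target TRPM1 promoter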
T1 sequence (O75030 whole entry): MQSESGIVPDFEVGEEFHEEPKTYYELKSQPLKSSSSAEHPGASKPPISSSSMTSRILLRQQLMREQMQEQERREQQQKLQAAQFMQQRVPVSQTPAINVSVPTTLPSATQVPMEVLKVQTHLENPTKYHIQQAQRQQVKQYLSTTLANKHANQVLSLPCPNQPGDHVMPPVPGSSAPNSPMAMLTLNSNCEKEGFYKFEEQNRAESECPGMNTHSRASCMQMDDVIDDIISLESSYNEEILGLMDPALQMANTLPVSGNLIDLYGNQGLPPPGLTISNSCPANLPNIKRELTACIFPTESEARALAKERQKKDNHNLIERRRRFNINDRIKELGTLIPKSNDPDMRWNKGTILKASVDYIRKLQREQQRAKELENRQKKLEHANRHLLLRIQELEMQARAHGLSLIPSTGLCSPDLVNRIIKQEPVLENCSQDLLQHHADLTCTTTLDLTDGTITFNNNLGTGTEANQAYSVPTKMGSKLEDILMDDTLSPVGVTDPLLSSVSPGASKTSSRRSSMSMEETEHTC

CAAX prenyl protease 2 = CAAX prenyl protease 2 (Homo sapiens, UniProt Q9Y256); test: inhibition of Ras-converting CAAX protease Rce1 – biochemical, yeast membranes, quenched-peptide fluorescence, cherry-pick, dose response (AID 588849)
[6] = target: Voltage-gated inwardly rectifying potassium channel KCNH2 (Homo sapiens, UniProt Q12809); settings: Potency;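 also: confirmatory quantitative high-throughput screen measuring inhibition of hERG channel activity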
Cytochrome P450 3A4 = Cytochrome P450 3A4 (Homo sapiens, UniProt P08684);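 also: CYP3A4 tested as one member of a cytochrome P450 panel screen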
[7] = target: Luciferin 4-monooxygenase (Photinus pyralis, UniProt P08659); test: inhibition of purified Photinus pyralis luciferase – biochemical, luminescence, dose response (AID 1891)
[8] = Luminescence Cell-Based Dose Confirmation HTS to Identify Inhibitors of Platelet Dense Granule Release. [Related pubchem assays: 1663 (Primary HTS), 1678 (Summary of Project)]; assay type: functional
Nonstructural protein 1 = Nonstructural protein 1 (Influenza A virus, UniProt Q194T2); assay type: functional, Influenza A virus (A/California/07/2009(H1N1))
MDCK [9] = test: antiviral activity against H1N1 influenza, dose response, cell-based, strain KY180 (AID 540254); assay type: functional; settings: Canis lupus familiaris
MDCK [10] = test: MDCK cell cytotoxicity, dose response, cytotoxicity control (AID 540296); assay type: functional; settings: Canis lupus familiaris

Sequence of DNA dC->dU-editing enzyme APOBEC-3A (P31941 whole entry): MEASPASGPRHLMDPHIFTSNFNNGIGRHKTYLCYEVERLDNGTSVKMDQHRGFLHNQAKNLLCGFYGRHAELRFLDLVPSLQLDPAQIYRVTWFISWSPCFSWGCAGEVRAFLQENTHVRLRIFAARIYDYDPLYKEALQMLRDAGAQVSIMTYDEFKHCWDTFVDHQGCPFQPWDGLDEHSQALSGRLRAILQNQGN
Sequence of DNA dC->dU-editing enzyme APOBEC-3G (Q9HC16 whole entry): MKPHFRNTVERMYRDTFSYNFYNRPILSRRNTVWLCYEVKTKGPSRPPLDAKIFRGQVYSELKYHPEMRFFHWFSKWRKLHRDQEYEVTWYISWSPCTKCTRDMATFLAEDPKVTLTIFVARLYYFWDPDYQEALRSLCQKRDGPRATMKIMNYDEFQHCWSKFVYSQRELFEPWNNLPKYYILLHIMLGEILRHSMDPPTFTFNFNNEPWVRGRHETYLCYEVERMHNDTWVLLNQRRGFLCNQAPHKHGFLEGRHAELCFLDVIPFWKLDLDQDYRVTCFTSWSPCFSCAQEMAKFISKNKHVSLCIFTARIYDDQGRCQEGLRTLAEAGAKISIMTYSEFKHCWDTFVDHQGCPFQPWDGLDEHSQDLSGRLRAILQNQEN
Sequence of Cytochrome P450 3A4 (P08684 whole entry): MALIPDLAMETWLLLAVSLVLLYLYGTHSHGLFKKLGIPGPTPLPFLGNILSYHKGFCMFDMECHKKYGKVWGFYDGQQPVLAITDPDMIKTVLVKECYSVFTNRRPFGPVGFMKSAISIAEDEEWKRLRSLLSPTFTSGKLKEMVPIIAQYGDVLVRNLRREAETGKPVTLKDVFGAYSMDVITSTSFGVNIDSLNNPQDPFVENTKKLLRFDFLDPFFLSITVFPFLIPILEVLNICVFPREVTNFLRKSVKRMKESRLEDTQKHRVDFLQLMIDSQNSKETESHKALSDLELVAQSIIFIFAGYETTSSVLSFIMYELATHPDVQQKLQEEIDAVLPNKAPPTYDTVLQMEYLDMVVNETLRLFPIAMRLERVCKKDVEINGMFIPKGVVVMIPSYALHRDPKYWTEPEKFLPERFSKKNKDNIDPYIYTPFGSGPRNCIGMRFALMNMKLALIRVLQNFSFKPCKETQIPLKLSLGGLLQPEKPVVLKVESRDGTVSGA
Sequence of Voltage-gated inwardly rectifying potassium channel KCNH2 (Q12809 whole entry): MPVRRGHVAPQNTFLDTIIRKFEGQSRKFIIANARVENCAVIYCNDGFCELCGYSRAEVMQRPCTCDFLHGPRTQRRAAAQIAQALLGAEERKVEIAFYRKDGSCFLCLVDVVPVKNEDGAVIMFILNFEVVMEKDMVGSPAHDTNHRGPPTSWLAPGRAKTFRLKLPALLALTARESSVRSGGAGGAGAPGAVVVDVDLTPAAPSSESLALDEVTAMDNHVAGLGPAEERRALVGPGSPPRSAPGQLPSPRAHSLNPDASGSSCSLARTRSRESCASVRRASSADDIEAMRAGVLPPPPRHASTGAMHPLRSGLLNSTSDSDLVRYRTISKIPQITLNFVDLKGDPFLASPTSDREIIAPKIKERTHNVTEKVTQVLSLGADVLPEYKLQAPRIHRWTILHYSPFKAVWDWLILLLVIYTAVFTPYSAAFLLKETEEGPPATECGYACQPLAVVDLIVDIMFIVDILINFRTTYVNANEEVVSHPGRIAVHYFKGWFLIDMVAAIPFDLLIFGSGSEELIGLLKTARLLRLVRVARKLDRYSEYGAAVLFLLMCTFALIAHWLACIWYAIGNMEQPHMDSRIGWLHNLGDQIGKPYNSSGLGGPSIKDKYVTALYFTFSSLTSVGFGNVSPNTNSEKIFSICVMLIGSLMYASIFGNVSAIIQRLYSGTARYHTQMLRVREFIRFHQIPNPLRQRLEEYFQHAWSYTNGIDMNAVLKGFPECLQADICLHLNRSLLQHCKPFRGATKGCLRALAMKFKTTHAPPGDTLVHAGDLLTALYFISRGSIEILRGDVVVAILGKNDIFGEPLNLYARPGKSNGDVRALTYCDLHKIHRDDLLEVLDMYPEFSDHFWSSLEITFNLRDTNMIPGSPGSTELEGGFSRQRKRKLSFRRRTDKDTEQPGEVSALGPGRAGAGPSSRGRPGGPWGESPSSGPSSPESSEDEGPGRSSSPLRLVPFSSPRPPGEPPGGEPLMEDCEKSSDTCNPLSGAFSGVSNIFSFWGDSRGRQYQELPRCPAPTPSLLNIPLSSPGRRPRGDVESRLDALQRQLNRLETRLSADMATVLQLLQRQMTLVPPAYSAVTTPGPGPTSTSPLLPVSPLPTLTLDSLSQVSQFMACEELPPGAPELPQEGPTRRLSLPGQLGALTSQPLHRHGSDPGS
Sequence of Luciferin 4-monooxygenase (P08659 whole entry): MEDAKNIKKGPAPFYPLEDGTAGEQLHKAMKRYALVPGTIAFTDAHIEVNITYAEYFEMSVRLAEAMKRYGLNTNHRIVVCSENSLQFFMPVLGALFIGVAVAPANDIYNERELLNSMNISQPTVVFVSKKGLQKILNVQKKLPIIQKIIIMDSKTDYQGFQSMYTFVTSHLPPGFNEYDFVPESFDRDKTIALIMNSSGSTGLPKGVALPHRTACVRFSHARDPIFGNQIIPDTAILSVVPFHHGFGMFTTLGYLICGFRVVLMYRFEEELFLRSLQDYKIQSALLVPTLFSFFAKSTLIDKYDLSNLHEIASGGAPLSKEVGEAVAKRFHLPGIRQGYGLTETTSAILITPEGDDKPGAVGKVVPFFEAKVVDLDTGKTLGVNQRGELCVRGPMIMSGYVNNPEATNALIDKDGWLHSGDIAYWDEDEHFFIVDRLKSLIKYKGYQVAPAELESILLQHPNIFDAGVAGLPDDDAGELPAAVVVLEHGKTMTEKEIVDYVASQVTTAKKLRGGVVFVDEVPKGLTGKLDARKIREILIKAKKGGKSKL
Sequence of CAAX prenyl protease 2 (Q9Y256 whole entry): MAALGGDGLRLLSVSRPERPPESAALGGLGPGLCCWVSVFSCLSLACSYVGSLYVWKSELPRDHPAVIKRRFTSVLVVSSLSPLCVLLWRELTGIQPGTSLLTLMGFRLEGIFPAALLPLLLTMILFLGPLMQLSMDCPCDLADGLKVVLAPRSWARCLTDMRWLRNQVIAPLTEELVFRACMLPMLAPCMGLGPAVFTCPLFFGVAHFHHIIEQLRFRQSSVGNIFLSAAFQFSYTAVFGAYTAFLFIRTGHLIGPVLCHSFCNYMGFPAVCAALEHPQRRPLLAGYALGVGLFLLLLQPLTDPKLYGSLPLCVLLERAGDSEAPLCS
Sequence of Nonstructural protein 1 (Q194T2 whole entry): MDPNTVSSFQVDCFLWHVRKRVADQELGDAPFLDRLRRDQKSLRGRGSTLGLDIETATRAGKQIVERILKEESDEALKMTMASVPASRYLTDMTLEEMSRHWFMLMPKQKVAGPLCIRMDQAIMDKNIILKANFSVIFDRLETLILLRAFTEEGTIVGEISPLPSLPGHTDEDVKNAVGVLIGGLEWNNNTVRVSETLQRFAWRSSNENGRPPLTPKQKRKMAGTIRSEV

Compound: O=C1c2ccccc2C(=O)N1CC#CCN1CCN(C(c2ccccc2)c2ccccc2)CC1
- AC50 [1]: 25.2 µM (active)
- AC50 [2]: 2.06 µM (active)

Compound: CCN1CCN(c2ccc(S(=O)(=O)N3CCOCC3)cc2NC(=O)/C=C/c2ccc([N+](=O)[O-])cc2)CC1
- IC50 [3]: 7.56 µM (active)
- AC50 (A-375): 28.6 µM (active)
- IC50 [4]: 8.67 µM (active)
- AC50 [5]: 8.13 µM (active)

Compound: Cc1c(CCC(=O)O)c(=O)oc2cc(OCc3cccc(F)c3)ccc12
- AC50 (CAAX prenyl protease 2): 12.1 µM (active)

Compound: CCn1c(=O)c2[nH]c(-c3ccccc3)nc2n(CC)c1=O
- AC50 [6]: 35.5 µM (inconclusive)
- AC50 (Cytochrome P450 3A4): 3.98 µM (inconclusive)

Compound: COc1ccc(N2CCN(CCCN)CC2)cc1
- EC50 [7]: > 112 µM (not active)
- EC50 [8]: > 112 µM (not active)
- IC50 (Nonstructural protein 1): 39.8 µM (active)
- IC50 (MDCK [9]): 23 µM (active)
- CC50 (MDCK [10]): > 40 µM (active)
